Non-standard residues stand in square brackets, D forms with d. Residues, ends and D or L forms follow the SMILES beside them. ξ: configuration not given here. ξGly(4-Pip(1-amidino)) = N=C(N)N1CCC(C(N)C(=O)O)CC1; ξGly(piperidin-4-yl) = NC(C(=O)O)C1CCNCC1; ξTle = CC(C)(C)C(N)C(=O)O; ξP = O=C(O)C1CCCN1; ξC = NC(CS)C(=O)O
Tests used:
[1] = compared to wildtype NTS; cited from earlier work
[2] = biological target: NTSR1 (Homo sapiens, UniProt P30989); conditions: compared to wildtype NTS; cited from earlier work
Chain of NTSR1 (P30989 whole entry): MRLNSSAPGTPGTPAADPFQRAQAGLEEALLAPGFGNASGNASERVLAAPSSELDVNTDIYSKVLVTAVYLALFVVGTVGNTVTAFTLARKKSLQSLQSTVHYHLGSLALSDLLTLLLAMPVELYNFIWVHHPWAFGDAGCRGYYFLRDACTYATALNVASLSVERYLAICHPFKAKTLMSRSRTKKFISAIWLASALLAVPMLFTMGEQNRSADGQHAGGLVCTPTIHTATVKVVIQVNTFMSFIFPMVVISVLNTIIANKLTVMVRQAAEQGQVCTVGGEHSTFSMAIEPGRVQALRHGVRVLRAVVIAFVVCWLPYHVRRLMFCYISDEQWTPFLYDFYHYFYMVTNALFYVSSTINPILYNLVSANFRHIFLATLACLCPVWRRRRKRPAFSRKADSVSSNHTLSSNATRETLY

[3] = test system: H1299 cells; experiment: MTT cell viability assay, 72 h, in the presence of RT; format: cell-based, human; conditions: with RT
Protocol: FIGS. 7A-7E are plots showing the results of a cell cycle analysis, based on PI staining and assessed by flow cytometry. H1299 cells were incubated with PBS (7A), DM1 (7B), DM1-NO (7C), DM1-NPs (7D), or DM1-NO-NPs (20 nM, DM1 concentration) (7E) before analysis. […] FIG. 7G is a bar graphs showing Percentage of tubulin inhibition. Tubulin polymer was collected by centrifugation (35000×g for 1 h at 30° C.) and the amount of tubulin protein sediment was quantified by measuring protein concentration. ***, P<0.001. FIG. 7H is a line graph showing cell viability, tested with H1299 cells using 72-h MTT in the presence of RT. DM1, DM1-NO, and DM1-NO-NPs were studied.
The viability of the H1299 cells after different treatments was measured by (4,5-dimethythiazon-2-yl)-2,5-diphenyl tetrazolium bromide (MTT) assay using an Infinite M200 microplate reader (BioTek's Synergy™ Mx, USA). Around 3×10^3 cells per well were seeded into a 96-well plate and cultured overnight until the cells fully adhered to the bottom of the plate. The cells were treated with different treatment groups, including free drugs (DM1 and DM1-NO), and drug loaded nanoparticles (DM1-NPs and DM1-NO-NPs) for 72 h. […] The plate was gently shake for 5 min (instrument setup) to dissolve the formazan crystals, and the absorbance at 570 nm was recorded by a microplate reader. […]

[4] = test system: H1299 cells; experiment: Clonogenic assay with X-ray irradiation, linear-quadratic model; format: cell-based, human; conditions: 20 nM, 12 h, X-rays 0-10 Gy
Protocol: Around 3×10^5 of H1299 cells were plated in a series of 25 mm petri dishes in 5 mL of complete RMPI-1640 medium, and the cells were incubated for 24 h at 37° C. Once the cells were completely adhered to the bottom of the plate, the media was replaced with fresh RPMI-1640 containing DM1 or DM1-NO with a final concentration of 20 nM. After another 12 h of incubation, the cell cultures were irradiated by X-rays (320 kV) of different doses Immediately following the X-ray irradiation, the cell monolayers were trypsinized using 0.05% Trypsin/EDTA (Gibco, Life Technologies, USA). Single cells were collected and plated onto a 25 mm petri dish in 5 mL complete media (FIG. 1K). Each dish was then incubated for 21 days to allow colonies to form. After that, the media was removed and 0.5% crystal violet in 70% methanol was used to fixed and stain the existing colonies. The plates were sufficiently and carefully rinsed, and were dried at room temperature. Once dried, the colonies were counted manually under a microscope. When observed under the microscope, colonies of […] were said to be surviving colonies. The survival rate of these colonies was normalized to the plating efficiency of the untreated control cells. The mean and standard deviation of surviving colonies in each treatment group was calculated.
The potential of DM1-NO as a radiosensitizer was assessed by clonogenic assays. Briefly, DM1 or DM1-NO was incubated with H1299 cells, the cells were irradiated with X-rays (0-10 Gy), and the resulting cells were seeded onto a petri dish (FIG. 1K). Colonies consisting more than 50 cells after 3 weeks were counted, and the data fit to a linear-quadratic model (Table 3).

[5] = test system: H1299 cells; experiment: MTT cell viability assay, 72 h, without RT; format: cell-based, human
Protocol: The viability of the H1299 cells after different treatments was measured by (4,5-dimethythiazon-2-yl)-2,5-diphenyl tetrazolium bromide (MTT) assay using an Infinite M200 microplate reader (BioTek's Synergy™ Mx, USA). Around 3×10^3 cells per well were seeded into a 96-well plate and cultured overnight until the cells fully adhered to the bottom of the plate. The cells were treated with different treatment groups, including free drugs (DM1 and DM1-NO), and drug loaded nanoparticles (DM1-NPs and DM1-NO-NPs) for 72 h. […] After that MTT reagent (in 20 μL PBS, 5 mg/mL) was added to each well. The cells were further incubated for 4 h at 37° C. The medium in each well was then removed and replaced by 100 μL DMSO. The plate was gently shake for 5 min (instrument setup) to dissolve the formazan crystals, and the absorbance at 570 nm was recorded by a microplate reader. Each experiment condition was run three times and the data were shown as the mean value plus a standard deviation (±SD).

[6] = test system: H1299 cells; experiment: Cell cycle arrest, PI staining and flow cytometry; format: cell-based, human; conditions: 20 nM, 24 h; PBS control 17.5%
Protocol: H1299 cells were seeded onto 6-well plates at a density of 2×10^5 cells per well and cultured overnight. The cells were then incubated with 20 nM of free drugs (DM1 and DM1-NO) or drug loaded nanoparticles (DM1-NPs and DM1-NO-NPs) for 24 h, and were then harvested and washed with ice-cold phosphate-buffered saline (PBS) and fixed with cold 70% (vol/vol) ethanol overnight at 4° C. The resulting cells were resuspended in PBS (1×) buffer containing a final concentration of 20 μg/mL RNase A and 20 μg/mL propidium iodide (eBioscience, Invitrogen, USA) for 15 min. The cell cycle profiles were determined using flow cytometry (HyperCyAn, Beckman USA) and analyzed using CellQuest software.

[7] = In vivo toxicity study (hematology, blood biochemistry, liver tissue); design: species or system balb/c mice; conditions: 260.8 nmol/kg i.v., Day 10
Protocol: Six-week old female albino BALB/c mice were purchased from Charles River Laboratories, USA. The animals were divided into control and experimental groups (n=3) and marked to permit individual identification. A similar dose (260.8 nmol/kg) of DM1-NO-NPs as used in therapeutic study was administered intravenously and the mice were examined for 10 days to observations for abnormal sign of toxicity such as change in behavioral, dizziness, respiratory distress or mortality were conducted until the end of the study. To further evaluate the hepatic function, alanine aminotransferase (ALT) and aspartate aminotransferase (AST) activities were measured and blood chemistry analysis was performed by using 20 μL blood serum sample form • each treated animal to assess the following: white blood cells (WBC), red blood cells (RBC), and platelets (PLT), plateletcrit, (PCT, mean platelet volume or platelet distribution width) and also corresponding sets of electrolytes (sodium, potassium, chloride, bicarbonate, sugar (glucose) calcium, inorganic phosphate, and magnesium, lipids (cholesterol), albumin, and total protein levels were also analyzed. Histological Analysis: […]

Row | SMILES | biological stability [1] | avidity to NTSR1 [2] | IC50 [3] | D10 (radiation dose at 10% fractional survival) [4] | α (linear quadratic model best fit value) [4] | β (linear quadratic model best fit value) [4] | IC50 [5] | portion of cells in the G2/M phase [6] | complete blood count: WBC, RBC, PLT, PCT levels [7]
1 | CC(C)C[C@H](NC(=O)C(NC(=O)[C@H](Cc1ccc(O)cc1)NC(=O)C1CCCN1C(=O)[C@H](CCCNC(=N)N)NC(=O)C(NC(=O)C1CCCN1C(=O)C(NC(=O)C(N)CS)C1CCNCC1)C1CCN(C(=N)N)CC1)C(C)(C)C)C(=O)O (stereo partly drawn) [NTSmut] (H-[ξC][ξGly(piperidin-4-yl)][ξP][ξGly(4-Pip(1-amidino))]R[ξP]Y[ξTle]L-OH) | much greater biological stability | comparable, nanomolar avidity |  |  |  |  |  |  | 
2 | COc1cc2cc(c1Cl)N(C)C(=O)C[C@H](OC(=O)[C@H](C)N(C)C(=O)CCS)[C@]1(C)O[C@H]1[C@H](C)[C@@H]1C[C@@](O)(NC(=O)O1)[C@H](OC)/C=C/C=C(\C)C2 [DM1, Mertansine, reference compound] |  |  | 17.4 nM | 4.89 Gy | 0.0729 | 0.0033 | 19.8 nM | 85.3% | in the normal range

— US12570704B2, “Functionally modified maytansinoids and compositions and methods of use thereof” (University of Georgia Research Foundation, Inc., priority 2019, dated 2026)
